From PubChem BioAssay AID1996
≈ marks a conversion by molar mass, not a printed value.

Conditions: buffer; pH 7.4; 200.0 µM
In the case of `C[N+]1(C)C2CCC1CC(OC(=O)c1ccccc1)C2.[Br-]` (stereo unspecified), the solubility kinetic is reported as > 51 µg/mL.
With `O=C(NC1CCC(c2ccccc2)CC1)c1cccnc1` (stereo unspecified) the solubility kinetic was 4.3 µg/mL (≈ 15.3 µM).
For `COC(=O)C1CCCN1C(=O)C12CC3CC(CC(C3)C1)C2` (stereo unspecified), the solubility kinetic was 41.9 µg/mL (≈ 144 µM).
For `O=C(NCCCN1CCOCC1)c1ccc2ccccc2c1`, the solubility kinetic was > 44.8 µg/mL.
`O=C(O)C(=O)O.c1ccc2c(c1)CCN(C1CCCCC1)C2` showed a solubility kinetic of 44 µg/mL.
In the case of `O=C(CCc1ccccc1)Oc1ccccc1[N+](=O)[O-]`, the solubility kinetic is reported as 5.2 µg/mL (≈ 19.2 µM).
In the case of `O=C(O)C1C2CCC(O2)C1C(=O)Nc1cccc(Cl)c1` (stereo unspecified), the solubility kinetic is reported as 40.6 µg/mL (≈ 137 µM).
With `CN(C)CCOC(C)(c1ccccc1)c1ccccn1.O=C(O)CCC(=O)O` (stereo unspecified) the solubility kinetic was > 58.3 µg/mL.
Molecule `O=C(Nc1ncccn1)c1cc(-c2ccc(F)cc2)nc2ccccc12` has a solubility kinetic of 44.5 µg/mL (≈ 129 µM).
Molecule `C=CCN1C(=O)N(CC=C)c2cccc3cccc1c23` has a solubility kinetic of 0.4 µg/mL (≈ 1.51 µM).
For `CCOc1ncccc1C(=O)Nc1c(C)n(C)n(-c2ccccc2)c1=O`, the solubility kinetic was > 52.9 µg/mL.
In the case of `CCC(C)c1ccccc1NC(=O)COC(=O)C1=NN(c2ccccc2)C(=O)CC1` (stereo unspecified), the solubility kinetic is reported as > 61.1 µg/mL.
Work on `O=C(NCc1ccccc1Cl)c1ccc(Br)o1` yielded a solubility kinetic of 41.9 µg/mL (≈ 133 µM).
In the case of `Cc1cccc(NC(=O)C(=O)NCCc2c[nH]c3ccccc23)c1C`, the solubility kinetic is reported as 1.4 µg/mL (≈ 4.17 µM).
For `O=c1c2cc(NC(=S)N3CCCC3)ccc2nc2n1CCCCC2`, the solubility kinetic was 6.1 µg/mL (≈ 17.8 µM).
With `O=C(Nc1ccccc1N1CCCCC1)c1cccc([N+](=O)[O-])c1` the solubility kinetic was 0.7 µg/mL (≈ 2.15 µM).
`CN=C1S/C(=C/c2cn(CC(=O)OC)c3ccccc23)C(=O)N1C` gave a solubility kinetic of 4.1 µg/mL (≈ 11.9 µM).
In the case of `CCCN(C(=O)CSc1ccccc1C(=O)O)C1CCS(=O)(=O)C1` (stereo unspecified), the solubility kinetic is reported as > 55.7 µg/mL.
For `CCN(CC)Cc1c(O)ccc2occ(C(=O)c3ccccc3)c12`, the solubility kinetic was 37.7 µg/mL (≈ 117 µM).
In the case of `CSCC[C@H](NC(=O)c1cccc(S(=O)(=O)N2CCCCCC2)c1)c1nc2ccccc2[nH]1`, the solubility kinetic is reported as 2.5 µg/mL (≈ 5.14 µM).
Work on `CN(C)Cc1ccccc1Sc1ccc2c(c1)CCCC2.O=C(O)C(=O)O` yielded a solubility kinetic of 5.5 µg/mL.
In the case of `O=C(Nc1ccccc1)Nc1ccccc1Br`, the solubility kinetic is reported as 2.1 µg/mL (≈ 7.21 µM).
For `O=S(=O)(Nc1cccc2ccccc12)c1ccccc1F`, the solubility kinetic was 1.5 µg/mL (≈ 4.98 µM).
In the case of `O=C(CSc1ncccn1)NC(=O)NCc1ccco1`, the solubility kinetic is reported as 40.8 µg/mL (≈ 140 µM).
Work on `CC(=O)c1cccc(NC(=S)NCc2ccccc2)c1` yielded a solubility kinetic of 6.4 µg/mL (≈ 22.5 µM).
With `O=C1CSC(c2ccncc2)N1Cc1ccc(F)cc1` (stereo unspecified) the solubility kinetic was > 43.3 µg/mL.
In the case of `NC(=O)c1ccccc1N=Cc1cccnc1`, the solubility kinetic is reported as > 33.8 µg/mL.
Molecule `CCCn1c(=O)c(Br)cn(-c2ccccc2C)c1=O` has a solubility kinetic of 48.2 µg/mL (≈ 149 µM).
For `COC(=O)CCSC(=S)N1CCOCC1`, the solubility kinetic was > 37.4 µg/mL.
With `Cc1ccccc1NS(=O)(=O)c1ccc2c(c1)oc(=O)n2C` the solubility kinetic was 2.3 µg/mL (≈ 7.22 µM).
For `O=C(/C=C/c1cccs1)NC1CC1`, the solubility kinetic was > 29 µg/mL.
In the case of `Cn1c(CO)nc2c3ccccc3ccc21`, the solubility kinetic is reported as > 31.8 µg/mL.
For `COC(=O)c1ccc(CNC(=O)COC(=O)/C=C/c2cc(OC)c(OC)c(OC)c2)cc1`, the solubility kinetic was 4.6 µg/mL (≈ 10.4 µM).
For `CC1(NS(=O)(=O)c2ccc(Cl)s2)CCS(=O)(=O)C1` (stereo unspecified), the solubility kinetic was > 49.5 µg/mL.
With `CN(Cc1ccccn1)Cc1nc(COc2ccccc2)no1` the solubility kinetic was 45.7 µg/mL (≈ 147 µM).
With `O=C(NCCNC(=O)c1ccccc1)c1ccccc1` the solubility kinetic was > 40.2 µg/mL.
Molecule `CSCC(=O)NC1CCCN(C2Cc3ccccc3C2)C1` (stereo unspecified) has a solubility kinetic of 44.1 µg/mL (≈ 145 µM).
With `O=C(c1ccc2c(c1)OCCO2)N1CCN(c2ccccn2)CC1` the solubility kinetic was > 48.8 µg/mL.
In the case of `O=C(CC1CCCCC1)NCc1ccccc1`, the solubility kinetic is reported as 30.5 µg/mL (≈ 132 µM).
For `CCCCN(C(=O)c1c(-c2ccccc2)noc1C)c1c(N)n(CCC)c(=O)[nH]c1=O`, the solubility kinetic was > 63.8 µg/mL.
In the case of `Cc1ccnc(NC2CCCCC2)c1`, the solubility kinetic is reported as 25.3 µg/mL (≈ 133 µM).
`Cc1ccc2cc(CNCCc3ccccc3C)c(=O)[nH]c2c1` showed a solubility kinetic of 40.7 µg/mL (≈ 133 µM).
For `CC(=O)Oc1ccc(N(C(C)=O)S(=O)(=O)c2ccc(C)cc2C)c2ccccc12`, the solubility kinetic was 4.3 µg/mL (≈ 10.5 µM).
In the case of `CCCN(CC(=O)Nc1ccccc1OC)C(=O)c1ccccn1`, the solubility kinetic is reported as > 49.1 µg/mL.
In the case of `O=C(Cc1ccccc1)NCC(=O)N/N=C/c1cccnc1`, the solubility kinetic is reported as > 44.4 µg/mL.
For `O=c1[nH]c(=S)[nH]c2scc(-c3ccc(Br)cc3)c12`, the solubility kinetic was 9.1 µg/mL (≈ 26.8 µM).
With `CN(CC(=O)Nc1ccc(F)c(F)c1F)C(=O)c1ccc(=O)[nH]c1` the solubility kinetic was > 50.9 µg/mL.
With `Cc1ccc(-c2csc3ncn(CC(=O)O)c(=O)c23)cc1C` the solubility kinetic was > 47.2 µg/mL.
With `CN(C)c1cccc(C(=O)NCC(c2ccco2)N(C)C)c1` (stereo unspecified) the solubility kinetic was > 45.2 µg/mL.
With `CC(C)[C@H](NC(=O)N1CC(=O)Nc2ccccc21)C(=O)N1CCC[C@@H]1C(=O)O` the solubility kinetic was > 58.3 µg/mL.
With `CSc1ccccc1NC(=O)c1ccccn1` the solubility kinetic was 29.8 µg/mL (≈ 122 µM).
In the case of `NC(=O)COc1ccc2cc(-c3ccc(F)cc3)c(=O)oc2c1`, the solubility kinetic is reported as < 0.7 µg/mL.
In the case of `Nc1ncc([N+](=O)[O-])c(N2CCCCCC2)n1`, the solubility kinetic is reported as > 35.6 µg/mL.
In the case of `NS(=O)(=O)c1cnccc1Nc1cccc(Br)c1`, the solubility kinetic is reported as 36.3 µg/mL (≈ 111 µM).
In the case of `CCOC(=O)c1ccc(NC(=O)CC2SC3=NCCN3C2=O)cc1` (stereo unspecified), the solubility kinetic is reported as > 52.1 µg/mL.
In the case of `Cc1ccc2c(c1)sc(=NC(=O)c1cccs1)n2C`, the solubility kinetic is reported as < 0.3 µg/mL.
For `CC(C)C(=O)Nc1ccc(-c2nc3ccccc3c(=O)o2)cc1`, the solubility kinetic was 16.7 µg/mL (≈ 54.2 µM).
Molecule `O=C(Nc1ccc(Cl)cc1)c1ccc2ncsc2c1` has a solubility kinetic of 3.1 µg/mL (≈ 10.7 µM).
For `COc1ccc(CNC(=O)c2ccc[nH]2)cc1`, the solubility kinetic was > 34.5 µg/mL.
With `CC(C)=NOc1nc(N(C)C)nc(N2CCOCC2)n1` the solubility kinetic was 41.9 µg/mL (≈ 149 µM).
Work on `COc1ccccc1-c1c(C#N)c(N)nc2c1CCC2` yielded a solubility kinetic of 5 µg/mL (≈ 18.8 µM).
`CCOC(=O)C1(Cc2ccccc2C)CCCN(C(=O)CCC(=O)OC)C1` (stereo unspecified) showed a solubility kinetic of 53 µg/mL (≈ 141 µM).
For `O=C(NC(=S)Nc1ccc(O)cc1)c1cncc(Br)c1`, the solubility kinetic was > 52.8 µg/mL.
For `O=[N+]([O-])c1ccc(CN2CCN(c3ccccc3)CC2)o1`, the solubility kinetic was 14.5 µg/mL (≈ 50.5 µM).
In the case of `Cc1nc2ccc(NC(=O)Cc3cccc(F)c3)cc2s1`, the solubility kinetic is reported as 11.5 µg/mL (≈ 38.3 µM).
In the case of `CNC(=O)Cn1ncc2c3ccccc3n(C)c2c1=O`, the solubility kinetic is reported as > 40.5 µg/mL.
In the case of `S=C1NCN(Cc2cccnc2)CN1`, the solubility kinetic is reported as > 31.2 µg/mL.
`CN1OC[C@@H]2COc3ccc4ccccc4c3[C@@H]21` showed a solubility kinetic of 33.1 µg/mL (≈ 137 µM).
In the case of `CC(C)(C)OC(=O)N1CCN(CCNC(=O)c2ccccc2)CC1`, the solubility kinetic is reported as > 50 µg/mL.
Work on `O=C(NCC1CCCO1)c1ccc(NC(=O)c2cccc(Cl)c2)cc1` (stereo unspecified) yielded a solubility kinetic of 2.5 µg/mL (≈ 6.97 µM).
In the case of `CSc1nc(SC(C)C(=O)O)c2c3c(sc2n1)COC(C)(C)C3` (stereo unspecified), the solubility kinetic is reported as > 55.6 µg/mL.
In the case of `CCN(CC(=O)Nc1c(F)cccc1F)C(=O)c1ccc(=O)[nH]c1`, the solubility kinetic is reported as > 50.3 µg/mL.
In the case of `Cc1ccccc1NC(=O)C(=O)NCCCN1CCOCC1`, the solubility kinetic is reported as > 45.8 µg/mL.
With `CC(C)OP(=O)(OC(C)C)C(C)NC(=O)Cc1ccccc1` (stereo unspecified) the solubility kinetic was 44.4 µg/mL (≈ 136 µM).
`S=C(NCc1ccccc1)NCc1ccc(Cl)cc1` gave a solubility kinetic of 2.3 µg/mL (≈ 7.91 µM).
`O=[N+]([O-])c1ccc(NCc2ccc(Cl)cc2)c2ccncc12` showed a solubility kinetic of 0.3 µg/mL (≈ 0.956 µM).
With `COc1ccccc1C(=O)NCCC(=O)Nc1cccnc1` the solubility kinetic was > 44.9 µg/mL.
Molecule `CN1C(=O)C(=Cc2cccnc2)C(=O)N(C)C1=O` has a solubility kinetic of 32.3 µg/mL (≈ 132 µM).
For `Cc1nc([N+](=O)[O-])cn1CC(O)c1ccc(Cl)cc1` (stereo unspecified), the solubility kinetic was > 42.3 µg/mL.
`CCc1ccc(OCC(=O)N2CC(C(N)=O)Oc3ccccc32)cc1` (stereo unspecified) showed a solubility kinetic of 45.1 µg/mL (≈ 132 µM).
In the case of `CSc1ccccc1C(=O)OCC(=O)N1CCCCCC1`, the solubility kinetic is reported as > 46.1 µg/mL.
Molecule `CCc1ccc(/C=C/c2c([N+](=O)[O-])c(=O)n(C)c(=O)n2C)cc1` has a solubility kinetic of 7.6 µg/mL (≈ 24.1 µM).
`Cc1cc(C)c2c(N)c(C(=O)N3CCc4ccccc4C3)sc2n1` showed a solubility kinetic of 5.5 µg/mL (≈ 16.3 µM).
For `N#C/C(=C\c1ccc(O)cc1)C(=O)NCc1cccc(Cl)c1`, the solubility kinetic was < 0.3 µg/mL.
For `Cc1cccc(-c2noc(CCC(=O)NC3CCCCC3)n2)c1`, the solubility kinetic was 3.4 µg/mL (≈ 10.8 µM).
For `COc1ccccc1CN(C)C(=O)CN1C(=O)c2ccccc2C1=O`, the solubility kinetic was 17 µg/mL (≈ 50.2 µM).
